Test results published in patent US11013673B2, “Cosmetic compositions containing quinones and their topical use on skin and hair” (Repairogen Corp, priority 2016, dated 2021).

Tests used:
[1] = test system: primary human fibroblasts; experiment: cytotoxicity assay (Cell Titer96 Aqueous One) on fibroblasts; settings: 24 h
Method: Normal human dermal adult fibroblasts derived from a donor of were purchased from CELLnTec (Bern, Switzerland) and grown in DMEM supplemented with 10% FBS (Life Technologies, CA, USA). Fibroblasts cultures were maintained at 37° C. with 5% CO2 and ˜95% humidity.
(§1) Cytotoxicity was evaluated using the Cell Titer96 Aqueous One (Promega, Wis., USA) basic test according to manufacturer's instructions. Cells were seeded at a density of 10,000 cells/well in a 96-well plate and cultured overnight. Treatments with seven doses of compounds were carried out for 24 hours, in triplicates. Colorimetric analysis was performed using an absorbance of 490 nm. Inhibition of viability of more than 20% of the control values was considered cytotoxic.
The cytotoxicity assay on primary human fibroblasts from adult donor was performed after 24 h of culture in the presence of different concentrations of each compound, as indicated in FIG. 2B and Table 2.

[2] = stability of active ingredient in cosmetic composition; settings: 40° C., 50° C., −5° C.; two-, four-, six-, eight-, and 12-week time points
Method: Two cosmetic compositions were prepared, one containing lapachol (denoted RGN 1538) and the other containing myrtucommulone C (denoted RGN 1518) as active ingredients, and the stabilities of the active ingredients in these compositions were evaluated.

[3] = test system: human epidermal keratinocytes; experiment: microarray analysis of differential gene expression in keratinocytes; settings: for number of genes downregulated / number of genes upregulated: 24 h
Method: (§2) Normal primary adult human keratinocytes derived from a donor were purchased from PromoCell (Heidelberg, Germany) and cultured in keratinocytes growth medium (Epilife+EDGS, Thermo Fisher Scientific, NY, USA). Keratinocytes cultures were maintained at 37° C. with 5% CO2 and ˜95% humidity.
Normal primary human keratinocytes were seeded in 6-well plates and incubated for 24 h. Cells were then washed in PBS (Thermo Fisher Scientific) and reincubated for 24 more hours in the presence of RGN1518 and RGN1538 (each at two different concentrations), vehicle control, or positive control. Following treatment, the cells were washed with PBS, collected and stored frozen at −80° C. before RNA extraction.
RNA was extracted using a Qiagen RNeasy kit (Qiagen, CA, USA) according to manufacturer's protocol.
18 vials containing RNA isolated from human epidermal keratinocytes and 18 vials containing RNA isolated from human fibroblasts were shipped to Thermo Fisher Scientific, Advanced BioMedical Laboratories (Cinnaminson, N.J.) on dry ice for Affymetrix Human Clariom D array processing.
The differential gene expression was obtained using a threshold of 0.05 for statistical significance (p-value) and a log fold change of expression with absolute value of at least 1. Gene expression was further analysed using Differential Expression Analysis and Pathway Analysis iPathwayGuide) by Advaita Bioinformatics Services (Plymouth, Mich.) in the context of pathways obtained from the Kyoto Encyclopedia of Genes and Genomes (KEGG) database (Release 84.0+/10-26, October 17) (Kanehisa et al., 2000; Kanehisa et al., 2002), gene ontologies from the Gene Ontology Consortium database (2017 Nov. 6) (Ashburner et al., 2000; Gene Ontology Consortium, 2001), miRNAs from the miRBase (Release 21) and […] (Targetscan version:Mouse:7.1, Human:7.1) databases (Agarwal et al., 2015; Nam et al., 2014; Griffiths-Jones et al., 2008; Kozomara and Griffiths-Jones, 2014; Friedman et al., 2009; Grimson et al., 2007), and diseases from the KEGG database (Release 84.0+/10-26, October 17) (Kanehisa et al., 2000; Kanehisa et al., 2002). All references are available in the reports for bioinformatics analysis of differential gene expression provided by Advaita Bioinformatics Services at the following link.

[4] = test system: primary human keratinocytes; experiment: cytotoxicity assay (Cell Titer96 Aqueous One) on keratinocytes; format: cell-based; settings: 24 h
Method: as §2, §1
The cytotoxicity assay on primary human keratinocytes from adult donor was performed after 24 h of culture in the presence of different concentrations of each compound, as indicated in FIG. 2A and Table 1.

[5] = test system: human fibroblasts; experiment: microarray analysis of differential gene expression in fibroblasts; format: cell-based
[6] = concentration of 50 (unit not given), 24 h
[7] = wound healing gene, fibroblasts, 24 h

For myrtucommulone C, the “Avg (% of untreated)” value ([1]; 6.2 μM) was 97%, the “Avg (% of untreated)” value ([1]; 12.4 μM) was 94% and the “Avg (% of untreated)” value ([1]; 24.8 μM) was 90%. For the same substance, the “Avg (% of untreated)” value ([1]; 50 μM) was 88%, the “Avg (% of untreated)” value ([1]; 100 μM) was 74% and the “Avg (% of untreated)” value ([1]; 200 μM) was 72%. The “Avg (% of untreated)” value ([1]; 400 μM) was 54%, the “concentrations that showed no cytotoxicity” value ([1]; unit not given) was “up to 50” and the “acceptable degradation of active compound (20% or 80% of original)” value [2] was “met this criteria”. For the same substance, the “expression of DNAJB9” value [3] was “upregulated”, the “expression of cell cycle genes PKMYT1, MYC” value [3] was “upregulated” and the “number of genes downregulated” value ([3]; 1.6 μM) was 1196 genes. The “number of genes upregulated” value ([3]; 1.6 μM) was 492 genes, the “number of genes downregulated” value ([3]; 3.1 μM, of 24905 genes) was 1294 genes and the “number of genes upregulated” value ([3]; 3.1 μM, of 24905 genes) was 693 genes. The “expression of cell cycle genes” value ([3]; CDK1, PLK1, RB1, CDC25C, CDC25B, MAD2L1, CDKN2B, CCNA2, MAD1L1, TTK, ZBTB17, RBL1, CCNB1, CCNB2, BUB1, CDC20, PTTG1, BUB1B) was “downregulated”, the “expression of genes maintaining structure and activity of the Golgi apparatus” value ([3]; COG6, ARFGAP3, IFT20, MGAT4) was “upregulated” and the “expression of genes important for normal differentiation and function of skin” value ([3]; FGF2, VEGFA, SERPINB1, CDH4, GDF15) was “upregulated”. For the same substance, the “expression of genes involved in Metabolic Pathways” value ([3]; GK, FA2H, ASS1, ACSS2, HK2, PHGDH, CYP1A1, CSGALNACT2) was “upregulated”, the “expression of genes associated with inflammation” value ([3]; IL1A, IL6, IL1R2, IL1RL1, IL2RG, TSC22D3) was “upregulated” and the “expression of genes involved in Metabolic Pathways” value ([3]; MTHFD1, CYP2J2, RRM2, TYMS) was “downregulated”. The “Avg (% of untreated)” value ([4]; 6.2 μM) was 80%, the “Avg (% of untreated)” value ([4]; 12.4 μM) was 44% and the “Avg (% of untreated)” value ([4]; 24.8 μM) was 43%. The “Avg (% of untreated)” value ([4]; 50 μM) was 47%, the “Avg (% of untreated)” value ([4]; 100 μM) was 43% and the “Avg (% of untreated)” value ([4]; 200 μM) was 54%. The “Avg (% of untreated)” value ([4]; 400 μM) was 51%, the “concentrations that showed no cytotoxicity” value ([4]; unit not given) was “up to 6.2” and the “vascular wound healing, spreading of epidermal cells and vasculature development (gene profile)” value [5] was “activation”. For the same substance, the “number of genes downregulated” value ([5]; 25 μM, 24 h, of 24905 genes) was 430 genes, the “number of genes upregulated” value ([5]; 25 μM, 24 h, of 24905 genes) was 986 genes and the “number of genes downregulated” value ([5]; 62 μM, 24 h) was 76 genes. The “number of genes upregulated” value ([5]; 62 μM, 24 h) was 53 genes, the “gene expression of common skin targets” value ([5]; CRELD1, NGF, GLRX2, CSGALNACT2, VEGFA, ITGA2, PPARG, EPGN) was “upregulated” and the “number of genes involved in wound healing downregulated” value ([5]; at both doses) was 24 genes. For the same substance, the “number of genes involved in wound healing upregulated” value ([5]; at both doses) was 28 genes, the “hair cycle, hair follicle morphogenesis and development (biological processes)” value ([5]; both concentrations) was “affected” and the “number of genes downregulated” value [5, 6] was 468 genes. For the same substance, the “number of genes upregulated” value [5, 6] was 821 genes, the “Log Fc ACTB” value [5, 7] was −1.055 and the “Log Fc ADAM17” value [5, 7] was 1.323. The “Log Fc AJUBA” value [5, 7] was −1.145, the “Log Fc CARMIL1” value [5, 7] was −1.177 and the “Log Fc DGKE” value [5, 7] was 1.432. The “Log Fc EDN1” value [5, 7] was −1.404, the “Log Fc EREG” value [5, 7] was 2.169 and the “Log Fc F2RL2” value [5, 7] was 1.038. The “Log Fc F3” value [5, 7] was −1.039, the “Log Fc FGF10” value [5, 7] was −1.313 and the “Log Fc FGFR1OP2” value [5, 7] was 1.213. For the same substance, the “Log Fc GATA6” value [5, 7] was −1.081, the “Log Fc GSN” value [5, 7] was −1.041 and the “Log Fc HBEGF” value [5, 7] was 1.225. The “Log Fc HIST1H3G” value [5, 7] was −2.339, the “Log Fc HIST2H3A” value [5, 7] was −1.285 and the “Log Fc HMOX1” value [5, 7] was 1.346. For the same substance, the “Log Fc IFRD1” value [5, 7] was 1.072, the “Log Fc IL6” value [5, 7] was 2.578 and the “Log Fc IL24” value [5, 7] was 1.179. The “Log Fc IRF1” value [5, 7] was 1.27, the “Log Fc ITGA2” value [5, 7] was 2.425 and the “Log Fc ITGB3” value [5, 7] was 2.051. The “Log Fc ITPR1” value [5, 7] was 1.812, the “Log Fc LBH” value [5, 7] was −1.524 and the “Log Fc MAFK” value [5, 7] was 1.267. The “Log Fc MERTK” value [5, 7] was 1.107, the “Log Fc MIR199A1” value [5, 7] was 2.142 and the “Log Fc MIR221” value [5, 7] was 1.648. For the same substance, the “Log Fc MYLK” value [5, 7] was −1.62, the “Log Fc NDNF” value [5, 7] was 1.132 and the “Log Fc NOV” value [5, 7] was −1.524. For the same substance, the “Log Fc PDGFD” value [5, 7] was −1.782, the “Log Fc PDPN” value [5, 7] was 1.265 and the “Log Fc PLAUR” value [5, 7] was 1.077. The “Log Fc PLET1” value [5, 7] was 1.412, the “Log Fc PLPP3” value [5, 7] was −1.23 and the “Log Fc RAB27A” value [5, 7] was 1.228. For the same substance, the “Log Fc SMAD3” value [5, 7] was −1.102, the “Log Fc SYT7” value [5, 7] was 1.079 and the “Log Fc TFPI2” value [5, 7] was 2.549. For the same substance, the “Log Fc TGFBR2” value [5, 7] was −1.067, the “Log Fc THBD” value [5, 7] was 4.119 and the “Log Fc THBS1” value [5, 7] was −1.287. For the same substance, the “Log Fc TLN1” value [5, 7] was −1.13, the “Log Fc TMEFF2” value [5, 7] was −1.526 and the “Log Fc TNFAIP3” value [5, 7] was 2.328. The “Log Fc TPM1” value [5, 7] was −1.209, the “Log Fc TRPC6” value [5, 7] was −2.444 and the “Log Fc UBASH3B” value [5, 7] was 1.546. The “Log Fc WNT5A” value [5, 7] was −1.732.
